Columns and labels:
Recombinant human FGF23 = assay: In vitro protease reactions: FGF23 proteolysis by t-PA or uPA (silver stained SDS-PAGE, western blot); format: biochemical
From the text: (§1) Recombinant human t-PA, uPA, and stable PAI-1 were obtained from Molecular Innovations Inc., Novi, Mich. Recombinant Human FGF23 was obtained from R and D Systems Inc., Minneapolis Minn.
The 6×His tag antibody was obtained from Abcam Inc., Cambridge Mass., and the FGF23 antibody was obtained from Santa Cruz Biotechnology Inc., Dallas Tex. Secondary HRP conjugated donkey anti goat (cross-adsorbed) and goat anti-rabbit antibodies were obtained from Bethyl Laboratories Inc., Montgomery, Tex., and Molecular Innovations Inc. respectively. 4-12% NuPAGE Bis-Tris Gels, PVDF iblot gel transfer stacks, 4×NuPAGE LDS sample buffer and 10×NuPAGE sample reducing agent were from Life Technologies Inc., Carlsbad, Calif. Luminata Forte Western HRP Substrate detection reagent was from EMD Millipore Inc., Billerica, Mass.
(§2) Gels were silver stained using the Pierce Silver Stain Kit from Thermo Fisher Scientific Inc. Waltham, Mass., according to the manufacturer's protocol.
Recombinant human FGF23 (1-1.5 μg) was incubated at 37° C. for 4 hours (or other time point indicated) with either recombinant human t-PA (1.1 μg) or uPA (1.1 μg), (in addition to 1.70 μg of recombinant human stable PAI-1 where indicated) in reaction buffer (25 μl final volume) containing: 50 mM Tris-HCl pH 8.0, 150 mM NaCl, 200 mM CHAPS, 0.1% PEG-8000, and 1% DMSO. […]

Klotho (kl/kl) mice = assay: TM5441 treatment of Klotho mice, plasma FGF23 by ELISA; format: in vivo; details: 100 mg/kg/day in chow for 120 days, C-Term ELISA (FIG. 1)
Experimental: Four week old Klotho (kl/kl) mice (n=11) were administered TM5441 at the dose of 100 mg/kg/day for 120 days. The chow diet containing the inhibitor was prepared by mixing a homogenous suspension of TM5441 made in 0.5% Carboxy Methyl Cellulose into the powder chow diet (Harland Teklad LM-485 number 7012). The plasma levels of FGF23 was measured using an ELISA kit (Immutopics, Inc. Mouse/Rat FGF-23 (C-Term) ELISA Kit, Cat. #60-6300) by following the manufacturer's protocol.

[1] = target: T1, recombinant human stable PAI-1 (Homo sapiens, UniProt P05121, K177T/M377I/N173H/Q342L); assay: In vitro FGF23 proteolysis by t-PA with PAI-1 and added TM5441; format: biochemical; details: TM5441 added to t-PA + PAI-1 reaction, 4 hours at 37° C., silver stained SDS-PAGE, FIG. 3
T1 construct: purchased Molecular Innovations Inc., Novi, Mich
Experimental: as §1
TM5441 was obtained from Toshio Miyata, M. D., Ph.D. and Renascience, Inc. A stock solution of 2.5 mM was prepared in DMSO.
as §2
Recombinant human FGF23 (1-1.5 μg) was incubated at 37° C. for 4 hours (or other time point indicated) with either recombinant human t-PA (1.1 μg) or uPA (1.1 μg), (in addition to 1.70 μg of recombinant human stable PAI-1 where indicated) in reaction buffer (25 μl final volume) containing: 50 mM Tris-HCl pH 8.0, 150 mM NaCl, 200 mM CHAPS, 0.1% PEG-8000, and 1% DMSO. To terminate the reaction, samples were incubated at 95° C. for 5 minutes in the presence of 1×NuPAGE LDS sample buffer and 1× NuPAGE sample reducing agent.

T1 sequence (P05121 24-402 N173H/K177T/Q342L/M377I): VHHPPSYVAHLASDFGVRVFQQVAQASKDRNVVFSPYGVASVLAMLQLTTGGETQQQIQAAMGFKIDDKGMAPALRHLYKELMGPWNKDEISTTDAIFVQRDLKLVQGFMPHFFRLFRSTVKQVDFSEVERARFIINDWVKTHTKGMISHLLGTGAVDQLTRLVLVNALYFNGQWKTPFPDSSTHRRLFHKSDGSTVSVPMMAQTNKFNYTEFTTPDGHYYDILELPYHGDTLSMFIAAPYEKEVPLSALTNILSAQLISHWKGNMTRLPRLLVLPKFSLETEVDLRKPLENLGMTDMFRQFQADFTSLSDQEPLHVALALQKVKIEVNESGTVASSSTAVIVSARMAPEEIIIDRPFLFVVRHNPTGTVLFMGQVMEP

Effect on PAI-1-inhibited FGF23 proteolysis by t-PA [1]	Compound	FGF23 proteolytic cleavage (smaller fragments on silver stained SDS-PAGE gel) (Recombinant human FGF23; 4 hours at 37° C., FIG. 2)	FGF23 fragments by western blot (Recombinant human FGF23; t-PA, various time points at 37° C., N-term and C-term fragments, FIG. 4)	FGF23 plasma levels (Klotho (kl/kl) mice)
–	t-PA: Recombinant human t-PA (tissue plasminogen activator) from Molecular Innovations Inc.	smaller fragments are generated	confirmed to be of FGF23 origin	–
restored	O=C(COCC(=O)Nc1ccc(Cl)cc1C(=O)O)Nc1cccc(-c2ccoc2)c1 [TM5441]	–	–	markedly reduced

Source: US20200046811A1, “METHODS AND COMPOSITIONS FOR MODULATING FGF23 LEVELS” (Northwestern University, priority 2014, published 2020)
